The record followed here is ChEMBL document CHEMBL1146235, “Rationally designed dual inhibitors of HIV reverse transcriptase and integrase” (J Med Chem, 2007).

Where only a bound is given, the exact number is not on record here.

Series [1] concerns the target Human immunodeficiency virus type 1 integrase (Human immunodeficiency virus 1, UniProt Q7ZJM1). Nature of the series: Inhibition of HIV1 integrase expressed in Escherichia coli BL21 (DE3).
Series [2] has as its target Human immunodeficiency virus type 1 reverse transcriptase (Human immunodeficiency virus 1, UniProt Q72547). Put plainly: Inhibition of HIV1 reverse transcriptase.
The nature of series [3]: Cytotoxicity against human PBMC. It is filed as cell-based. The settings on record: PBMC (peripheral blood mononuclear cells).
Series [4] can be described thus: Theraputc index, ratio of CC50 of PBMC cells to EC50 of HIV1 NL4-3. It is filed as ADME, cell-based. To be noted: read-out: Ratio CC50/EC50.
Series [5] relates to Human immunodeficiency virus 1. Put plainly: Antiviral activity against HIV1 NL4-3 in human PBMC. The class given is functional, organism-based. To be noted: Human immunodeficiency virus 1, NL4.3.
Series [6] can be described thus: Cytotoxicity against CEM-SS cells assessed as cell viability. The settings on record: human, read-out: Activity. It is filed as cell-based.
For series [7], the system named is Human immunodeficiency virus 1. Put plainly: Antiviral activity against HIV1 3B in CEM-SS cells by cytoprotection assay. It is filed as functional. Further details: concentration or dose not given beside the values.

Human immunodeficiency virus type 1 integrase, sequence (Q7ZJM1 whole entry): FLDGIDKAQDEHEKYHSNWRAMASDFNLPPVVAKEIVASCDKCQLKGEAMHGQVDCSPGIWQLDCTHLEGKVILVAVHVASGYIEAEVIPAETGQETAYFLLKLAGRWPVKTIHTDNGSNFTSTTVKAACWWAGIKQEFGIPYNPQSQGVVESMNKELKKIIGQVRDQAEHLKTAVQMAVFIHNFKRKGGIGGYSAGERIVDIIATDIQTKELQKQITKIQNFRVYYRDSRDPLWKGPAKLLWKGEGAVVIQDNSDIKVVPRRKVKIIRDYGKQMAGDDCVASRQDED

What is called IC50 is the concentration needed to halve the response being measured. On to `O=C(Nc1ccc2c(O)c(/N=N/c3ccc(C(=O)O)cc3)c(S(=O)(=O)O)cc2c1)Nc1ccc2c(O)c(/N=N/c3ccc(C(=O)O)cc3)c(S(=O)(=O)O)cc2c1`, for which the half-inhibitory concentration (IC50) in series [1] amounted to 0.7 µM; in series [2], 0.39 µM.
What is called CC50 is the concentration at which the toxic effect on the cells reaches its halfway point. In series [3], `O=[N+]([O-])c1ccc(C2c3c(O)nc(S)nc3Oc3nc(S)nc(O)c32)cc1` yielded a CC50 of 120 µM. The half-maximal inhibitory concentration (IC50) in series [1] is 0.3 µM; in series [2] it was 4.8 µM. Further, the selectivity ratio in series [4] was 14.
As a reminder, the EC50 is the midpoint of the concentration-response curve. `O=C(O)/C(O)=C/C(=O)c1cccc(Cc2ccccc2)c1`: in series [3], the half-maximal cytotoxic concentration (CC50) was over 10 µM. This molecule had an EC50 in series [5] of 0.16 µM. Further, the concentration for half-maximal inhibition (IC50) in series [2] was over 100 µM.
With `Cc1cc(C)cc(Cc2c(C(C)C)c(=O)[nH]c(=O)n2COCc2ccc(C(=O)/C=C(\O)C(=O)O)cc2)c1`, in series [3], the CC50 was over 10 µM. Further, in series [5], the EC50 is 0.017 µM. Besides, the viability in series [6] amounted to 100%. Moreover, the 50% inhibitory concentration (IC50) stood at 7.67 µM in series [1] and 0.0092 µM in series [2]. This molecule returned an Activity in series [7] of 100%. The selectivity ratio in series [4] was over 600.
Take `CCc1c(Cc2cc(C)cc(C)c2)n(COCc2ccc(C(=O)/C=C(\O)C(=O)O)cc2)c(=O)[nH]c1=O`: in series [3], the CC50 is over 10 µM. The molecule also displayed a 50% effective concentration (EC50) in series [5] of 0.0097 µM. For the same molecule, the viability in series [6] was found to be 100%. Moreover, the IC50 was 4.44 µM in series [1] and 0.0242 µM in series [2]. In addition, in series [7], the Activity is recorded as 100%. Moreover, the selectivity ratio in series [4] was over 1000.
For `CCc1c(Cc2ccccc2)n(COCc2ccc(C(=O)/C=C(\O)C(=O)O)cc2)c(=O)[nH]c1=O`, the CC50 in series [3] is over 10 µM. This molecule displayed an EC50 in series [5] of 0.052 µM. In addition, the viability in series [6] was 91%. In addition, the IC50 in series [1] worked out at 1.82 µM; in series [2], 0.235 µM. In series [7], the Activity is given as 95.2%. In addition, in series [4], the selectivity ratio is over 190.
In turn, `CC(C)c1c(Cc2ccccc2)n(COCc2ccc(C(=O)/C=C(\O)C(=O)O)cc2)c(=O)[nH]c1=O` returned a CC50 in series [3] of over 10 µM. Besides, in series [5], the response was half-maximal at 0.033 µM (EC50). In series [6], the viability was found to be 90%. The IC50 in series [1] turned out to be 2.41 µM; in series [2] it was 0.057 µM. Also, the Activity in series [7] stood at 100%. Besides, in series [4], the selectivity ratio was over 310.
As for `O=Cc1ccc(-c2cc(-c3cccc(C=O)c3)c(O)c(O)c(=O)c2O)cc1`, it took 6 µM to reach half-maximal cytotoxicity in series [3] (CC50). This molecule also displayed a 50% effective concentration (EC50) in series [5] of 3 µM. The figures for the IC50 in series [1] and in series [2] were 1.1 µM and 1.2 µM, respectively. In addition, the selectivity ratio in series [4] was determined as 2.
For the molecule `CC(C)c1c(Cc2ccccc2)n(COCc2ccccc2)c(=O)[nH]c1=O`, the cytotoxic concentration (CC50) in series [3] was over 10 µM. This molecule gave an EC50 in series [5] of 0.016 µM. Also, the figures for the IC50 in series [1] and in series [2] were over 100 µM and 0.016 µM, respectively. Moreover, the selectivity ratio in series [4] was over 160.
